The conditions of series [1]: background; result in words; cited from earlier work.
For series [2] the following is noted: rabbit, in vivo.

“Also recorded” adds a separate entry of the source.

For `CC[C@@H]1C(=O)OC[C@@H]1Cc1cncn1C` [pilocarpine], in series [1], the “reduction of intraocular pressure” value is listed as “reduce intraocular pressure” and the “side effects / local effects” value is “undesirable local effects”.
Regarding `CC(C)(C)NC[C@H](O)COc1nsnc1N1CCOCC1` [timolol], in series [1], the “duration of activity and loss of effect” value is “long duration of activity; also recorded: minimal loss of effect with increased duration of dosing”; the “reduction of intraocular pressure” value is “found to reduce intraocular pressure”; the “side effects / local effects” value is “devoid of many unwanted side effects associated with pilocarpine; also recorded: devoid of local anaesthetic properties”.
Take cyclodextrin: the “change in ocular bioavailability compared with the TRUSOPT formulation” value in series [2] is reported as “only minor changes in bioavailability”.
Still for that read-out and setting: in the case of polyvinyl alcohol it was “only minor changes in bioavailability”.

Source of the values: patent US6264935A, “Ophthalmic composition containing a carbonic anhydrase inhibitor and xanthan gum” (priority 1996, dated 2001).
